# Patent US6362180B1, “Imidazopyridines for the treatment of neurological disorders” (Bristol-Myers Squibb Pharma Company, priority 1997, dated 2002)
row,melting point [°C],Structure (SMILES)
1,139 to 140,"CCc1nc2c(-c3ccc(OC)cc3Cl)ncnc2n1C(C1CC1)C1CC1 [Example 831, 6-(2-Chloro-4-methoxyphenyl)-9-dicyclopropylmethyl-8-ethylpurine]"
2,139 to 141,"CCc1nc2c(-c3cc4ccoc4cc3C)ncnc2n1C(C1CC1)C1CC1 [Example 5201, 9-dicyclopropylmethyl-8-ethyl-6-(6-methylbenzofuran-5-yl)purine]"
3,177 to 178,"CCc1nc2c(-c3cc4cc(Br)oc4cc3C)ncnc2n1C(C1CC1)C1CC1 [Example 5231, 6-(2-bromo-6-methylbenzofuran-5-yl)-9-dicyclopropylmethyl-8-ethylpurine]"
4,179 to 180,"CCc1nc2c(-c3cc4c(c(Br)c3C)OCC4)ncnc2n1C(C1CC1)C1CC1 [Example 5232, 6-(7-bromo-6-methyl-2,3-dihydrobenzofuran-5-yl)-9-dicyclopropylmethyl-8-ethylpurine]"
5,147 to 148,"CCc1nc2c(-c3cc4c(cc3C)OCC4)ncnc2n1C(C1CC1)C1CC1 [Example 5001, 9-Dicyclopropylmethyl-8-ethyl-6-(6-methyl-2,3-dihydrobenzofuran-5-yl)purine]"
6,99 to 100,"CCCCC(CC)n1c(CC)nc2c(-c3c(C)cc(C)cc3C)ncnc21 (stereo not drawn) [Example 2, 8-Ethyl-9-(1-ethylpentyl)-6-(2,4,6-trimethylphenyl)purine]"
